How the values were obtained:
[1] = (§1) Voltage-Clamp Assay: All experiments were conducted at room temperature (22-24° C.) with an EPC-10 amplifier and Pulse software (HEKA, Lambrecht/Pfalz, Germany) in the whole-cell mode of the patch-clamp technique. Human embryonic kidney (HEK)-293 cell lines stably expressing hNav1.1, hNav1.5, hNav1.7 channels (generously provided by Dr. Christopher Lossin, University of California Davis), hNav1.4 (Frank Lehmann-Horn, University of Ulm), or hKv2.1 channels (James Trimmer, University of California Davis) were bathed in extracellular solution containing (in mM): 160 NaCl; 4.5 KCl; 1 MgCl2; 2 CaCl2; 10 HEPES [pH was adjusted to 7.4 using NaOH (310 mOsm)]. Pipettes were filled with intracellular solution containing (in mM): 145 KF; 2 MgCl2; 10 ethylene glycol tetraacetic acid; 10 HEPES (pH adjusted to 7.2 with KOH; 300 mOsm). Neuroblastoma N1E-115 cells (ATCC, Manassa, Va., USA) expressing Nav1.2 were patched with a CsF internal solution consisting of (in mM): 10 NaF; 110 CsF; 20 CsCl; 2 ethylene glycol tetraacetic acid; 10 HEPES (CsOH to pH 7.35; 300 mOsm). All pipette tip resistances were 2-4 MΩ. Series resistances of 3-10 MΩ were compensated 40-80%. All cells were voltage-clamped to a holding potential of −90 mV unless otherwise specified. The sampling frequency was 5 kHz. Na+ currents were elicited by 30-ms pulse to 0 mV from −90 mV applied every 10 s. […]
[2] = as §1; remark: listed apart in the source
[3] = as §1; remark: listed apart in the source
[4] = as §1; remark: listed apart in the source
[5] = as §1; remark: listed apart in the source
[6] = as §1; remark: listed apart in the source

Nc1nc2ccc(SC(F)(F)F)cc2s1
EC50 [1]: 6.9 µM | EC50 [2]: 7.9 µM | EC50 [3]: 2.2 µM | EC50 [4]: 4.5 µM | EC50 [5]: 5.8 µM | EC50 [6]: 22.3 µM
